Experimental data reported in patent publication US5015637A, “Pyrido[3,4-b]pyrrolo[1,2-e][1,4,5]oxadiazepines” (Hoechst-Roussel Pharmaceutical Inc., priority 1990, dated 1991).

Tested on: Phenylquinone-Induced Writhing in Mice
Assay: Inhibition of Phenylquinone-Induced Writhing in Mice (PQW)
Type: in vivo, mice (male CD-1 Charles River)
Experimental: Compounds I of the present invention are also useful as analgesic agents due to their ability to alleviate pain in mammals. […] Exptl. Biol. Med., 95, 729 (1957)].
Inhibition of Phenylquinone-Induced Writhing in Mice (PQW)
A 0.125% concentration of phenyl-p-benzoquinone in a 5% aqueous solution of ethyl alcohol is administered to mice (10 mL/kg, ip). This produces a characteristic "writhe" which is defined as an inward rotation of one or more feet with twisting and turning of the trunk, drawing in of the abdominal wall, lordosis, and arching of the back. A total of 28 male CD-1 Charles River mice (18-30 g) are employed for a time-response. Animals receive food and water ad libitum during their stay in the animal quarters prior to testing. Compounds are tested at 20 mg/kg, sc and are prepared with distilled water, and if insoluble one drop of Tween-80, a surfactant, is added. Compounds are administered in a dosage volume of 10 mL/kg.
Twenty mice (five per group) are administered the test compound at various pretreat time (e.g., 15, 30, 45, and 60 min) prior to phenylquinone injection. Control animals (two per group) receive an equal volume of vehicle. After the administration of phenylquinone, the mice are placed separately into 1-L beakers, and 5 min are allowed to elapse. The mice are then observed for a period of 10 min, and the number of writhes is recorded for each animal. The formula for computing percent inhibition is [formula]
The time period with the maximum percent of inhibition is considered the peak time. A dose-response is reserved for interesting compounds or those which inhibit writhing by 70% or more. A dose-response is run in the same manner as a time-response except 10 animals per group are tested at the peak time of drug activity. Fifty animals, divided among four drug groups and one vehicle control group, are employed. The mice are normally given four doses of drug, each twice the amount of the preceding dose. An ED50 is calculated by a computer linear regression analysis.

`CN1c2ccncc2OCc2cccn21` [5-Methyl-5H,10H-pyrido[3,4-b]pyrrolo[1,2-e][1,4,5]-oxadiazepine] was tested, and the “% Inhibition of Writhing @ 20 mg/kg, s.c.” value was 58%.

With `CN1CCC(C2Oc3cnccc3N(C)n3cccc32)CC1` (stereo not drawn) [5-Methyl-10-(1-methyl-4-piperidinyl)-5H,10H-pyrido[3,4-b]pyrrolo[1,2-e][1,4,5]oxadiazepine] the “% Inhibition of Writhing @ 20 mg/kg, s.c.” value was 47%.

In the case of `CC(C)=CCN1CCC2(C)c3cc(O)ccc3CC1C2C` (stereo not drawn) [Pentazocine, reference compound], the “% Inhibition of Writhing” value (at the dose of 1.3 mg/kg, s.c. (footnote *)) was 50%.
